According to ChEMBL document CHEMBL5705888, “Substrate specificity and inhibitors of LRRK2, a protein kinase mutated in Parkinson's disease” (Biochem J, 2009):

Legend:
[1] = biological target: T1, NUAK family SNF1-like kinase 1 (Homo sapiens) (UniProt O60285); assay: Activity of NUAK1 (unknown origin) at 1 uM incubated for 30 mins in presence of [gamma-33P]ATP by multidrop micro reagent based assay relative to control
T1 sequence (whole entry): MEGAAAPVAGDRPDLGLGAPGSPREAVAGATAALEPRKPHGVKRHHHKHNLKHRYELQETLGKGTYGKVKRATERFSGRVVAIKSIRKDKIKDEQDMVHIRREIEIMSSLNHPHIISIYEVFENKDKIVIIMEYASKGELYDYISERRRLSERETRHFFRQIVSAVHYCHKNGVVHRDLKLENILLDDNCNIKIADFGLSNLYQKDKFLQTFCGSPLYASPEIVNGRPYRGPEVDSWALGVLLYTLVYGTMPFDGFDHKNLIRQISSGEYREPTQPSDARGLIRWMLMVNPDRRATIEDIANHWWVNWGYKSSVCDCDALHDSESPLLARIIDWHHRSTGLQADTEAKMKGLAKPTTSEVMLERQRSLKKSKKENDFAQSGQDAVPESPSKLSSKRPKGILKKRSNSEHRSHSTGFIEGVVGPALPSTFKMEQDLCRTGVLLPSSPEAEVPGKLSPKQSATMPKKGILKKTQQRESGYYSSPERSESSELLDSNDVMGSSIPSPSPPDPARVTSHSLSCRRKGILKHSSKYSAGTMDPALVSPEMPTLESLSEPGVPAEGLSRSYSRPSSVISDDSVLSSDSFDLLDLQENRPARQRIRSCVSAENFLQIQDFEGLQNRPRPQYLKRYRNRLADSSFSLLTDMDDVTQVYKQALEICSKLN

[2] = biological target: Mitogen-activated protein kinase 9 (Homo sapiens) (UniProt P45984); assay: Inhibition of JNK2 (unknown origin) at 1 uM incubated for 30 mins in presence of [gamma-33P]ATP by multidrop micro reagent based assay relative to control; values are per cent of control
[3] = biological target: T2, Dual specificity protein kinase TTK (Homo sapiens) (UniProt P33981); assay: Inhibition of TTK (unknown origin) at 1 uM incubated for 30 mins in presence of [gamma-33P]ATP by multidrop micro reagent based assay relative to control; values are per cent of control
T2 sequence (whole entry): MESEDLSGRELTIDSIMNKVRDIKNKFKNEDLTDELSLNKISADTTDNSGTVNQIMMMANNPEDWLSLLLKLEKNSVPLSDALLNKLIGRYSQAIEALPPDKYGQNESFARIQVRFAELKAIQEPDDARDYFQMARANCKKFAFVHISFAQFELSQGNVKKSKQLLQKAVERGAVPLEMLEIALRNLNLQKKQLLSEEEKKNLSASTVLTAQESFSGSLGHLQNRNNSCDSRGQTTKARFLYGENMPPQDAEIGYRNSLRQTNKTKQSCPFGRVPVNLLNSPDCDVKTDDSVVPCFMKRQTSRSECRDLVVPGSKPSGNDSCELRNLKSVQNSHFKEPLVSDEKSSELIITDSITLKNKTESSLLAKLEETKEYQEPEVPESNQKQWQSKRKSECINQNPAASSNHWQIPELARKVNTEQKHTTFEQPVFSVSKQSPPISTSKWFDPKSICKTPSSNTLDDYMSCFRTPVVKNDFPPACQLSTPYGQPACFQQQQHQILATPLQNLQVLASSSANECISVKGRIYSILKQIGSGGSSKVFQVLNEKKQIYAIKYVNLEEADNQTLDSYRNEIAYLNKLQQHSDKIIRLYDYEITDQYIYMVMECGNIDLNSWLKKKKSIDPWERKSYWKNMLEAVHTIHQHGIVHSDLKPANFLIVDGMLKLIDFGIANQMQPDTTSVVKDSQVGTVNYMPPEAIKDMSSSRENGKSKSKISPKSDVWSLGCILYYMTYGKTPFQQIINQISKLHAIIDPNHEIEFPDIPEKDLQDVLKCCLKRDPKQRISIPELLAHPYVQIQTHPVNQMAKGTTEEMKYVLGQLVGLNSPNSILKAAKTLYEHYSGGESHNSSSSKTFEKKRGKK

[4] = biological target: T3, Serine/threonine-protein kinase TBK1 (Homo sapiens) (UniProt Q9UHD2); assay: Inhibition of TBK1 (unknown origin) at 10 uM incubated for 30 mins in presence of [gamma-33P]ATP by multidrop micro reagent based assay relative to control; values are per cent of control
T3 sequence (whole entry): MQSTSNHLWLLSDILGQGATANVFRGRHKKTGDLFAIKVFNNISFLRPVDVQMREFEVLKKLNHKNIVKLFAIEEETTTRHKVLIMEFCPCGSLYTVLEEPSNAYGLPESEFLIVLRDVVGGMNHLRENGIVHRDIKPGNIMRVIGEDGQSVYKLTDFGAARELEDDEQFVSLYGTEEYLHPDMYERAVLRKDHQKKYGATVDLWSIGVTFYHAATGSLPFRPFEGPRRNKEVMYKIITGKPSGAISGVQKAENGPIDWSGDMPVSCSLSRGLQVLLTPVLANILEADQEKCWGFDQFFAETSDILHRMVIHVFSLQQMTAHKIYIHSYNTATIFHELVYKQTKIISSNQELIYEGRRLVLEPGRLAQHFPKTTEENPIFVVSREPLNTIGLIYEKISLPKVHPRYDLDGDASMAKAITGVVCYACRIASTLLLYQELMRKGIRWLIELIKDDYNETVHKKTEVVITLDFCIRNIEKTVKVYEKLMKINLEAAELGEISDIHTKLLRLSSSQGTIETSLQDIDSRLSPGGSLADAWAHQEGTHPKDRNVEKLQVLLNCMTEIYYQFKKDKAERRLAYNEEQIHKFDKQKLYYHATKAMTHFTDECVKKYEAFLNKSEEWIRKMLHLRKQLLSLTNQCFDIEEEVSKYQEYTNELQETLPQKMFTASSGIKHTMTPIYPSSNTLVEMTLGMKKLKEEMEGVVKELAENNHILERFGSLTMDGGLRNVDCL

[5] = biological target: Insulin receptor-related protein (Homo sapiens) (UniProt P14616); assay: Inhibition of IRR (unknown origin) at 10 uM incubated for 30 mins in presence of [gamma-33P]ATP by multidrop micro reagent based assay relative to control
[6] = biological target: Mitogen-activated protein kinase 14 (Homo sapiens) (UniProt Q16539); assay: Inhibition of p38alpha MAPK (unknown origin) at 10 uM incubated for 30 mins in presence of [gamma-33P]ATP by multidrop micro reagent based assay relative to control; values are per cent of control
[7] = biological target: RAC-alpha serine/threonine-protein kinase (Homo sapiens) (UniProt P31749); assay: Inhibition of PKBalpha (unknown origin) at 10 uM incubated for 30 mins in presence of [gamma-33P]ATP by multidrop micro reagent based assay relative to control; values are per cent of control
Sequence of RAC-alpha serine/threonine-protein kinase (Homo sapiens) (P31749 whole entry): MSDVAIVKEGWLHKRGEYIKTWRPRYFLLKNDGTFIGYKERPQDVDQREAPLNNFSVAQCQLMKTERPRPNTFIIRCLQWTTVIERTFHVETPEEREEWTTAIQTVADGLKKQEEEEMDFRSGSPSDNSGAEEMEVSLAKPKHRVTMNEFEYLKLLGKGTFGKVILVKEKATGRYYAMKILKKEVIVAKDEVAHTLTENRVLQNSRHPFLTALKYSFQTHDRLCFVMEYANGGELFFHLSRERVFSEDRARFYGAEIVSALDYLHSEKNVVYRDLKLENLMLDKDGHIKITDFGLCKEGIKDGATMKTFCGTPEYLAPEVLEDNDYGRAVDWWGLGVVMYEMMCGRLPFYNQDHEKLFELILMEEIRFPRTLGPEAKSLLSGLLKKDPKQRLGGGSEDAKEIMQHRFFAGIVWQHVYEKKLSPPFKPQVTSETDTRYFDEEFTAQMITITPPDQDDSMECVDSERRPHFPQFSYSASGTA

Sequence of Mitogen-activated protein kinase 14 (Homo sapiens) (Q16539 whole entry): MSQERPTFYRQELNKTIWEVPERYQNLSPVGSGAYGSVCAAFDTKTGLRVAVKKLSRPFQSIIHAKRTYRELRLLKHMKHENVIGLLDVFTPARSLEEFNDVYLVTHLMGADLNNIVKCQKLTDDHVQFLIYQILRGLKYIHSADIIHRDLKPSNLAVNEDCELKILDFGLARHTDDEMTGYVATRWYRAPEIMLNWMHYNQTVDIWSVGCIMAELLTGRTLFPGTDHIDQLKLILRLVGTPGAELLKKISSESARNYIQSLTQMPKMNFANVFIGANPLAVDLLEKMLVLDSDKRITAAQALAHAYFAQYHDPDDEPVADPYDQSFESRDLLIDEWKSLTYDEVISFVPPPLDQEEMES
Sequence of Mitogen-activated protein kinase 9 (Homo sapiens) (P45984 whole entry, looked up): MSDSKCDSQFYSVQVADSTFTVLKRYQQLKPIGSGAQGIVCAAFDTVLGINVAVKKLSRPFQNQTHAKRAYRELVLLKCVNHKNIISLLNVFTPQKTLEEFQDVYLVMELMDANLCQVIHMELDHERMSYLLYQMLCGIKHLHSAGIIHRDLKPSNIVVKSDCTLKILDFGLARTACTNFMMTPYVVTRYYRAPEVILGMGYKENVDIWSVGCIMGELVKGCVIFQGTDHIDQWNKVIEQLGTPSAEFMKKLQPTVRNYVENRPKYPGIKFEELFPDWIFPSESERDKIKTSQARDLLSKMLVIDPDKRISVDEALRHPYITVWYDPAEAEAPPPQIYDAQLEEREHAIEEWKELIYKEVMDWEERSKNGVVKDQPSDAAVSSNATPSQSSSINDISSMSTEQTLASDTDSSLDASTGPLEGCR
Sequence of Insulin receptor-related protein (Homo sapiens) (P14616 27-742 limits assumed): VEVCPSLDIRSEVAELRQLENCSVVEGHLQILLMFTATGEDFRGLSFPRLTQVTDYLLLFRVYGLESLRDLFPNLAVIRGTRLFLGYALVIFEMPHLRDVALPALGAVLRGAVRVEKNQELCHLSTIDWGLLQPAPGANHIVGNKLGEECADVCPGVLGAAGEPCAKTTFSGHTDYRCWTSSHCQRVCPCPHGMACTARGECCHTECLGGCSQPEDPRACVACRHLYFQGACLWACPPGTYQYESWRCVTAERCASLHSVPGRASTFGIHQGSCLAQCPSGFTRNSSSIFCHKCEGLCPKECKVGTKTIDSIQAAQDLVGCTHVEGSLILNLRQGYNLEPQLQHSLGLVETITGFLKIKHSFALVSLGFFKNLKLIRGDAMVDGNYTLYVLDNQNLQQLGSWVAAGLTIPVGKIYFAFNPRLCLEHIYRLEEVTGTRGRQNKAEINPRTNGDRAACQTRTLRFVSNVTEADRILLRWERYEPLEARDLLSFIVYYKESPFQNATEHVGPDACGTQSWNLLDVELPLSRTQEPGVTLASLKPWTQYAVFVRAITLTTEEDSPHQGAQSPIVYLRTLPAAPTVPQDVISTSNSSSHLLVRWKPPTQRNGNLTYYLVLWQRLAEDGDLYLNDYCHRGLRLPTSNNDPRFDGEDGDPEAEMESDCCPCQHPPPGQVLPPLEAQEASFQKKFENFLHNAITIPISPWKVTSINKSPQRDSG
Sequence of Insulin receptor-related protein (Homo sapiens) (P14616 747-1297 limits assumed): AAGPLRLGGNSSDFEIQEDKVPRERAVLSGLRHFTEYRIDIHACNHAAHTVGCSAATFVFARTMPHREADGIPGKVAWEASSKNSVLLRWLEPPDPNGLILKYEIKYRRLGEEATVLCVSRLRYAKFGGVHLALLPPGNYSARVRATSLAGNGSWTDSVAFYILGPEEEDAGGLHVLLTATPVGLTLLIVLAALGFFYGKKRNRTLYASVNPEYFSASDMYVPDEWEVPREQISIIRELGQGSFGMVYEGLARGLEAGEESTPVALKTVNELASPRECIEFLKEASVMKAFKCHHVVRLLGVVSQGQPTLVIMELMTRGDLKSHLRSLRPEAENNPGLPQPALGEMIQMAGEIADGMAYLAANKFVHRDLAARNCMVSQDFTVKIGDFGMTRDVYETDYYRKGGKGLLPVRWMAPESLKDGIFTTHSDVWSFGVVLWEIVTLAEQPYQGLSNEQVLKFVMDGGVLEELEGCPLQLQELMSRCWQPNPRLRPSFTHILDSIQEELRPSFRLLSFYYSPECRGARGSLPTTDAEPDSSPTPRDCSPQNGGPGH

Row | Structure (SMILES) | residual activity [1] | residual activity [2] | residual activity [3] | residual activity [4] | inhibition [5] | residual activity [6] | residual activity [7]
1 | CCn1c(-c2nonc2N)nc2cnc(Oc3cccc(NC(=O)c4ccc(OCCN5CCOCC5)cc4)c3)cc21 [GSK-269962A] | 39% | 101% | 69% |  |  |  | 
2 | O=S(=O)(c1cccc2cnccc12)N1CCCNCC1 [FASUDIL] |  |  |  | 110% | 86% | 108% | 27%
3 | C[C@@H](N)[C@H]1CC[C@H](C(=O)Nc2ccncc2)CC1 |  |  |  | 69% | 91% | 103% | 56%
4 | CC1=C(C(=O)Nc2cc3cn[nH]c3cc2F)C(c2ccc(C(F)(F)F)cc2)CC(=O)N1 (centres undefined) |  | 101% | 83% |  |  |  | 
5 | CCN(CC)CCNC(=O)c1c(C)[nH]c(/C=C2\C(=O)Nc3ccc(F)cc32)c1C | 15% |  |  |  |  |  | 
